Common to all, as to format: functional
The test system of assay [1] is Fusarium oxysporum f. sp. vasinfectum. Put plainly: Antifungal activity against Fusarium oxysporum vasinfectum at 10 ppm after 144 hrs at 24 hrs intervals.
Assay [2] relates to Alternaria alternata. Put plainly: Antifungal activity against Alternaria tenuis at 10 ppm after 168 hrs at 24 hrs intervals.
The subject of assay [3] is Drechslera. Put plainly: Antifungal activity against Drechslera oryzae at 1 ppm after 168 hrs at 24 hrs intervals.
For assay [4], the system named is Alternaria alternata. Nature of the assay: Antifungal activity against Alternaria tenuis at 1000 ppm after 168 hrs at 24 hrs intervals.
Assay [5] relates to Drechslera. Nature of the assay: Antifungal activity against Drechslera oryzae at 10 ppm after 168 hrs at 24 hrs intervals.
Assay [6] has as its system Drechslera. Nature of the assay: Antifungal activity against Drechslera oryzae at 100 ppm after 168 hrs at 24 hrs intervals.
For assay [7], the system named is Drechslera. Put plainly: Antifungal activity against Drechslera oryzae at 1000 ppm after 168 hrs at 24 hrs intervals.
The subject of assay [8] is Alternaria alternata. Put plainly: Antifungal activity against Alternaria tenuis at 100 ppm after 168 hrs at 24 hrs intervals.
Assay [9] relates to Fusarium oxysporum f. sp. vasinfectum. Nature of the assay: Antifungal activity against Fusarium oxysporum vasinfectum at 100 ppm after 144 hrs at 24 hrs intervals.
The test system is the same in assay [10]. Nature of the assay: Antifungal activity against Fusarium oxysporum vasinfectum at 1 ppm after 144 hrs at 24 hrs intervals.
Assay [11] has the same test system. Nature of the assay: Antifungal activity against Fusarium oxysporum vasinfectum at 1000 ppm after 144 hrs at 24 hrs intervals.
Assay [12] has as its system Alternaria alternata. Nature of the assay: Antifungal activity against Alternaria tenuis at 1 ppm after 168 hrs at 24 hrs intervals.

This note sets out measurements from ChEMBL document CHEMBL1146447, “Evaluation of the antifungal activity of natural xanthones from Garcinia mangostana and their synthetic derivatives” (1997).

For `O=c1c2ccccc2oc2ccccc12` [XANTHONE], the values for the inhibition at 10 ppm (in assay [1]; with Alternaria alternata [2]; in the assay with Drechslera [5]) were 8%, 5% and 29%, respectively. In addition, the results for the inhibition at 1 ppm (in the assay on Drechslera [3]; in assay [10]; in the assay on Alternaria alternata [12]) were 19%, -2% and -43%, respectively. Moreover, the inhibition at 1000 ppm with Alternaria alternata [4] was -14%; in the assay on Drechslera [7], 3%; in [11], 6%. Also, the values for the inhibition at 100 ppm (in the assay with Drechslera [6]; in the assay on Alternaria alternata [8]; in [9]) were 34%, -6% and 1%, respectively.

One may read the inhibition as the change of the read-out against control, counted positive when it falls.
